Consider one compound from patent publication US20240209353A1, “NADK2 INHIBITION IN CANCER AND FIBROTIC DISORDERS” (Memorial Sloan-Kettering Cancer Center, priority 2021, published 2024).

The subject of this assay is immunopurified mitochondria of DLD1-OMP25HA cells. The assay is described as follows: LC-MS metabolomic profiling, Mito-IP samples. It counts as cell-based, human. Here is the method:
Rapid immunopurification of mitochondria was performed following the published methodology (4). In brief, cells with control or NADK2 knockout were engineered to express the HA-tagged OMP25 protein (Addgene, 83356); or in the case of FIG. 5E, parental DLD1 cells were engineered to express the HA-tagged OMP25 protein or the Myc-tagged OMP25 protein (Addgene, 83355), 30 million cells were washed and dounce homogenized in KPBS (136 mM KCl and 10 mM KH2PO4, pH 7.25). The homogenate was then cleared by centrifugation and the supernatant was applied to anti-HA beads (Thermo Fisher, 88837) and incubated with rotation for 3.5 min. The resultant beads were washed with KPBS and were eluted for different downstream analyses: Triton X-100 lysis buffer (50 mM Tris-HCl, pH 7.4, 150 mM NaCl, 1 mM EDTA, 1% (vol/vol) Triton X-100, and protease inhibitors) was used to elute mitochondria for Western blot analysis; 80:20 methanol:water containing 1.5 μM ^13C^15N labeled amino acids (Cambridge Isotope Laboratories, MSK-A2-1.2) was used to elute mitochondria for liquid chromatography-mass spectrometry (LC-MS) analysis; 80:20 methanol:water was used to elute mitochondria for NAD(H) and NADP(H) measurements; glutathione lysis buffer (see below) was used to elute mitochondria for GSH measurements.
For negative ionization mode liquid chromatography separation was achieved on an iHILIC-(P) Classic column (100 mm×2.1 mm, 5 μm particle size, HILICON). Mobile phase A was 10 mM ammonium bicarbonate in 10:90 acetonitrile:water with 5 μM medronic acid, pH 9.4 and mobile phase B was 10 mM ammonium bicarbonate in 90:10 acetonitrile:water with 5 μM medronic acid, pH 9.4). The gradient was 0 min, 95% B; 15 min, 50% B; 18 min, 50% B; 19 min, 95% B; 19.10 min, 95% B; 25.5 min, 95% B; 2 mins posttime. Other LC parameters were: flow rate: 200 μL/min; column temperature: 40° C., and injection volume was 2 μL. MS parameters were: gas temp: 300° C.; gas flow: 10 L/min; nebulizer pressure: 40 psig; sheath gas temp: 350° C.; sheath gas flow: 12 L/min; VCap: 3,000 V; fragmentor: 125 V. Data were acquired from m/z 50-1700 with active reference masses correction (m/z: 121.05087 and 922.00980 (positive mode) or m/z: 119.03632 and 980.01638 (negative mode). Peak identification and integration were done based on in-house exact mass and retention time library built from commercial standards. Data analysis and natural isotope abundance correction were performed using MassHunter Profinder software v10.0 (Agilent Technologies).
For metabolomic profiling of the Mito-IP samples, dried extracts were resuspended in 30 μL of 60:40 acetonitrile:water and an additional 7.5 μL of 100% methanol added to prevent phase separation. Samples were vortexed, incubated on ice for 20 min, and clarified by centrifugation at 20,000 g for 20 min at 4° C. LC-MS analysis was using the iHILIC-(P) Classic negative method described with 6545 Q-TOF mass spectrometer (Agilent Technologies). Whole cell extracts were analyzed in parallel and data analysis was performed using MassHunter Profinder v10.0 software (Agilent Technologies). Metabolite identifications reported were based on either (a) exact mass and retention times matched to authentic standards (denoted as RT in Tables 1A-1G) or (b) exact mass and MS2 spectra match using SIRIUS software (denoted as MS2 in Tables 1A-1G) (https://bio.informatik.uni-jena.de/software/sirius/). Metabolites were considered to be mitochondrial if the average peak area measured in anti-HA Mito-IPs from HA-tagged OMP25 cells was at least 1.5-fold more than in anti-HA Mito-IPs from the control cell expressing Myc-tagged OMP25 (scc Tables 1A-1G; FC>1.5 for [OMP25HA sgCtrl MitoIP vs. OMP25Myc MitoIP]).

Setting [1] is: DLD1-OMP25HA sgCtrl + Piericidin MitoIP, 5 μM 2 hours, rep01-rep03.

“And” between values parts separate entries of the source, which are not always exact repeats. Equal entries are not always repeated.

As to `C/C=C(\C)[C@H](O)[C@H](C)/C=C(C)/C=C/C/C(C)=C/Cc1nc(OC)c(OC)c(O)c1C` [piericidin], under setting [1], the 2-aminoadipate level is 62966 and 65899 and 79200; the 3-hydroxy-3-methylglutarate level is 65452 and 77263 and 90857; the 3-hydroxyhexadecanoate level was 154313 and 165893 and 273073; the alpha-ketoglutarate level is 36956 and 33481 and 64213. In addition, under setting [1], the carbamoyl aspartate level is 61946 and 44834 and 50496; the citrate level is 2652773 and 2956510 and 3197992; the dodecanoate level was 117632035 and 108567664 and 182339246; the galactonic acid level is 79663 and 109571 and 76436. Moreover, under setting [1], the glutamine level is 58654 and 57894 and 67465; the “glutathione, reduced (GSH) level” value was 5666886 and 8127441 and 4704089; the lactate level was 2355878 and 2582709 and 1383509; the malate level was 78861 and 87997 and 101969. Under setting [1], the methylmalonate level is 49637 and 60988 and 87945; the “methylthioribulose 1-phosphate level” value was 78919 and 79663 and 140471; the “nicotinamide adenine dinucleotide, reduced (NADH) level” value is 3526961 and 3705811 and 4542289; the oleate level was 3976796 and 4283346 and 4070066. Further, under setting [1], the palmitate level was 58619197 and 59278003 and 34887756; the pentadecanoic acid level is 988055 and 823203 and 616849; the phenylacetate level was 206078 and 155618 and 258772; the phosphoglycolic acid level was 12625 and 17645 and 24712. Under setting [1], the succinate level is 32755 and 39006 and 43999; the taurine level was 3028424 and 3328577 and 3010797; the “uridine 5′-monophosphate (UMP) level” value is 149496 and 116561 and 209899. Also, the “glutamate and NADH levels in the mitochondria” value (sgCtrl DLD1-OMP25HA cells, 5 μM piericidin for 2 hours before Mito-IP) was “increased”.
